This passage reports Ki results from US7851474B2, “Dipiperazinyl ketones and related analogues” (Neurogen Corporation, priority 2005, dated 2010).

T1 sequence (Q9Y5N1 with tags, fused parts or gaps E19D): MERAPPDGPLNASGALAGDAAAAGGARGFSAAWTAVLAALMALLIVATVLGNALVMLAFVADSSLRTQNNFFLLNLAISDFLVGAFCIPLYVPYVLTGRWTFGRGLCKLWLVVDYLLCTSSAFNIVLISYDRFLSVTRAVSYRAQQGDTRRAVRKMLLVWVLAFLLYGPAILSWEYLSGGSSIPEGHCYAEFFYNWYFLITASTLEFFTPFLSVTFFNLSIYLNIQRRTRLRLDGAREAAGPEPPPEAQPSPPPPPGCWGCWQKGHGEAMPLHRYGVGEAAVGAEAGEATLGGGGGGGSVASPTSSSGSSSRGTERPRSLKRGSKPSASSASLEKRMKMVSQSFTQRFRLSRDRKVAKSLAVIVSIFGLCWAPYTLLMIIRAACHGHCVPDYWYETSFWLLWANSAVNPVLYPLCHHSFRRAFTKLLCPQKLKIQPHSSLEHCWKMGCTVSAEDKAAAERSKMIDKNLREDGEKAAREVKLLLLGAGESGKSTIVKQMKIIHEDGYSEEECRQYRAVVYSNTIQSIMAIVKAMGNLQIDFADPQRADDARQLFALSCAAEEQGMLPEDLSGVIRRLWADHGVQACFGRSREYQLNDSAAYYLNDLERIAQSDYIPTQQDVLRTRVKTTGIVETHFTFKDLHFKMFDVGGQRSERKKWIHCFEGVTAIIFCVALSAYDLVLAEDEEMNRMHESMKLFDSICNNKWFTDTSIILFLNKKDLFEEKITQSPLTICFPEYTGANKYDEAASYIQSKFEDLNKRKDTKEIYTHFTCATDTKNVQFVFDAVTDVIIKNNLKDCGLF

The first test has as its target T1, chimeric human H3 receptor (Homo sapiens, UniProt Q9Y5N1, E19D).
T1 construct: made in house; host or cells: Sf9 insect cells (baculovirus infection); P2 membrane preparation
The experiment in a line: Chimeric human H3 receptor GTP binding assay (agonist-stimulated GTP-gamma35S binding, Example 7). It is filed as biochemical.
Settings: not given
Summed up:
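IC50 values come from non-linear regression of dose-response curves of filter-bound GTP-gamma^35S, counted by scintillation. Membranes were from infected Sf9 cells carrying receptor plus G-protein subunits, 35 μg/tube, with 10 μM GDP present.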
A general note: Binding of GTPγS marks nucleotide exchange on a G protein.
In the case of `CCCCN1CCN(C(=O)CN2CCN(c3ccc(C(F)(F)F)cc3)CC2)CC1` [Compound 496, 1-butyl-4-({4-[4-(trifluoromethyl)phenyl]piperazin-1-yl}acetyl)piperazine], the Ki (commonly a dissociation constant, usually derived from enzyme kinetics or from competition with a known ligand) is below 1 µM.
Still for that read-out and setting: as for `CCN1CCN(C(=O)CN2CCN(c3ccc(C(F)(F)F)cc3)CC2)CC1` [Compound 842, 1-ethyl-4-({4-[4-(trifluoromethyl)phenyl]piperazin-1-yl}acetyl)piperazine], the figure is below 1 µM; as for `O=C(CN1CCN(c2cccc(C(F)(F)F)c2)CC1)N1CCN(C2CCC2)CC1` [Compound 590, 1-cyclobutyl-4-({4-[3-(trifluoromethyl)phenyl]piperazin-1-yl}acetyl)piperazine], below 1 µM.

Still in this test, the particulars now being: "*" in Ki of Table II; assay of Example 7; read-out: Ki.
Regarding `O=C(N1CCN(C2CCC2)CC1)N1CCC2(CC1)C(=O)N(Cc1ccccc1)c1ccccc12` [Compound 488, 1-benzyl-1′-[(4-cyclobutylpiperazin-1-yl)carbonyl]spiro[indole-3,4′-piperidin]-2(1H)-one], the Ki is below 1 µM.
Consider `CC1CN(c2ccc(C(F)(F)F)cn2)CCN1CC(=O)N1CCN(C(C)(C)C)CC1` (centres unmarked) [Compound 451, 1-[2-(4-tert-butylpiperazin-1-yl)-2-oxoethyl]-2-methyl-4-[5-(trifluoromethyl)pyridin-2-yl]piperazine], for which the inhibitory constant (Ki) was below 1 µM.

The test is the same for the next values; noted with them: Table II "Ki", symbol "*": Ki in the assay of Example 7; read-out: Ki.
Turning to `O=C(CN1CCN(c2cnc(-c3ccc(F)c(Cl)c3)cn2)CC1)N1CCN(C2CCC2)CC1` [Compound 899, 2-(3-chloro-4-fluorophenyl)-5-{4-[2-(4-cyclobutylpiperazin-1-yl)-2-oxoethyl)piperazin-1-yl}pyrazine], the Ki is below 1 µM.
Same read-out and setting: the same measure for `O=C1CCc2cc(N3CCC(C(=O)OCC(=O)N4CCN(C5CCCC5)CC4)CC3)ccc21` [Compound 907, 2-(4-cyclopentylpiperazin-1-yl)-2-oxoethyl 1-(1-oxo-2,3-dihydro-1H-inden-5-yl)piperidine-4-carboxylate]: below 1 µM; for `O=C(CN1CCN(c2ccc(-c3ccncc3)cc2)CC1)N1CCN(C2CCC2)CC1` [Compound 791, 1-cyclobutyl-4-{[4-(4-pyridin-4-ylphenyl)piperazin-1-yl]acetyl}piperazine]: below 1 µM.

The test is the same for the next values; noted with them: Table II, "*" in Ki; assay of Example 7; read-out: Ki.
`O=C(CN1CCN(c2ccc(C(=O)N3CC=CCC3)cc2)CC1)N1CCN(C2CCC2)CC1` [Compound 593, 1-cyclobutyl-4-({4-[4-(3,6-dihydropyridin-1(2H)-ylcarbonyl)phenyl]piperazin-1-yl}acetyl)piperazine]: the inhibition constant Ki was below 1 µM.
Regarding `CCC1CCCCN1C(=O)c1ccc(N2CCN(CC(=O)N3CCN(C4CCC4)CC3)CC2)cc1` (centres unmarked) [Compound 643, 1-cyclobutyl-4-[(4-{4-[(2-ethylpiperidin-1-yl)carbonyl]phenyl}piperazin-1-yl)acetyl]piperazine], the Ki was below 1 µM.
Same read-out and setting: as for `CC1CCN(C(=O)c2cccc(N3CCN(CC(=O)N4CCN(C5CCC5)CC4)CC3)c2)CC1` [Compound 642, 1-cyclobutyl-4-[(4-{3-[(4-methylpiperidin-1-yl)carbonyl]phenyl}piperazin-1-yl)acetyl]piperazine], the figure is below 1 µM.

The test is the same for the next values; noted with them: Table II; assay of Example 7; "*" in Ki; read-out: Ki.
Regarding `COc1ccc(OC)c(-c2cnc(N3CCN(CC(=O)N4CCN(C5CCC5)CC4)CC3)cn2)c1` [Compound 953, 2-{4-[2-(4-cyclobutylpiperazin-1-yl)-2-oxoethyl]piperazin-1-yl}-5-(2,5-dimethoxyphenyl) pyrazine], the inhibitory constant (Ki) was below 1 µM.
Still for that read-out and setting: as for `COc1ccc(-c2ccc(N3CCN(CC(=O)N4CCN(C5CCC5)CC4)CC3)nn2)cc1OC` [Compound 1033, 3-{4-[2-(4-cyclobutylpiperazin-1-yl)-2-oxoethyl]piperazin-1-yl}-6-(3,4-dimethoxyphenyl) pyridazine], the figure is below 1 µM.
The same measure, in the same setting: the same measure for `CCCOc1ccc(-c2cnc(N3CCN(CC(=O)N4CCN(C5CCC5)CC4)CC3)cn2)cc1` [Compound 949, 2-{4-[2-(4-cyclobutylpiperazin-1-yl)-2-oxoethyl]piperazin-1-yl}-5-(4-propoxyphenyl)pyrazine]: below 1 µM; for `N#Cc1cccc(-c2ccc(N3CCN(CC(=O)N4CCN(C5CCC5)CC4)CC3)cc2)c1` [Compound 1118, 4′-{1-[2-(4-cyclobutylpiperazin-1-yl)-2-oxoethyl]piperazin-1-yl}biphenyl-3-carbonitrile]: below 1 µM; for `CCC(C)N1CCN(C(=O)CN2CCC(N3CCOCC3)CC2)CC1` (centres unmarked) [Compound 1116, 4-{1-[2-(4-sec-butylpiperazin-1-yl)-2-oxoethyl]piperidin-4-yl}morpholine]: below 1 µM.
Regarding `Cc1ccc(-c2ccc(N3CCN(CC(=O)N4CCN(C5CCC5)CC4)CC3)nn2)c(F)c1` [Compound 1007, 3-{4-[2-(4-cyclobutylpiperazin-1-yl)-2-oxoethyl]piperazin-1-yl}-6-(2-fluoro-4-methylphenyl)pyridazine], the Ki was below 1 µM.
Regarding `COc1ccc(-c2cnc(N3CCN(CC(=O)N4CCN(C5CCC5)CC4)CC3)cn2)cc1OC` [Compound 945, 2-{4-[2-(4-cyclobutylpiperazin-1-yl)-2-oxoethyl]piperazin-1-yl}-5-(3,4-dimethoxyphenyl) pyrazine], the Ki was below 1 µM.
Turning to `CCNC(=O)c1ccc(N2CCN(CC(=O)N3CCN(C4CCC4)CC3)CC2)cc1` [Compound 1124, 4-{1-[2-(4-cyclobutylpiperazin-1-yl)-2-oxoethyl]piperazin-1-yl}-N-ethylbenzamide], the Ki is below 1 µM.
The same measure, in the same setting: as for `CN(C)C(=O)c1ccc(N2CCN(CC(=O)N3CCN(C4CCC4)CC3)CC2)cc1` [Compound 1123, 4-{1-[2-(4-cyclobutylpiperazin-1-yl)-2-oxoethyl]piperazin-1-yl}-N,N-dimethylbenzamide], the figure is below 1 µM; as for `O=C(NCC1CC1)c1cccc(N2CCN(CC(=O)N3CCN(C4CCC4)CC3)CC2)c1` [Compound 1073, 3-{4-[2-(4-cyclobutylpiperazin-1-yl)-2-oxoethyl]piperazin-1-yl}-N-(cyclopropylmethyl) benzamide], below 1 µM.

The test is the same for the next values; noted with them: assay of Example 7; "*" in Ki of Table II; read-out: Ki.
Turning to `O=C(CCC1CCCC1)NC1CCN(CC(=O)N2CCN(C3CCC3)CC2)C1` (centres unmarked) [Compound 1250, N-{1-[2-(4-cyclobutylpiperazin-1-yl)-2-oxoethyl]pyrrolidin-3-yl}-3-cyclopentylpropanamide], the Ki is below 1 µM.
The same measure, in the same setting: as for `CC(C)CCC(=O)NC1CCN(CC(=O)N2CCN(C3CCC3)CC2)C1` (centres unmarked) [Compound 1247, N-{1-[2-(4-cyclobutylpiperazin-1-yl)-2-oxoethyl]pyrrolidin-3-yl}-4-methylpentanamide], the figure is below 1 µM.
Still for that read-out and setting: as for `COCCN(C(=O)c1ccc(N2CCN(CC(=O)N3CCN(C4CCC4)CC3)CC2)nc1)C(C)C` [Compound 1172, 6-{4-[2-(4-cyclobutylpiperazin-1-yl)-2-oxoethyl]piperazin-1-yl}-N-isopropyl-N-(2-methoxyethyl)nicotinamide], the figure is below 1 µM; as for `COc1ccc(C(=O)NC2CCN(CC(=O)N3CCN(C4CCC4)CC3)CC2)cc1F` [Compound 1214, N-{1-[2-(4-cyclobutylpiperazin-1-yl)-2-oxoethyl]piperidin-4-yl}-3-fluoro-4-methoxybenzamide], below 1 µM; as for `CCC(C)CNC(=O)c1ccc(N2CCN(CC(=O)N3CCN(C4CCC4)CC3)CC2)nc1` (centres unmarked) [Compound 1173, 6-{4-[2-(4-cyclobutylpiperazin-1-yl)-2-oxoethyl]piperazin-1-yl}-N-(2-methylbutyl)nicotinamide], below 1 µM.

Still in this test, the particulars now being: assay of Example 7; symbol * in column headed Ki of Table II; read-out: Ki.
Consider `CC1CN(c2ccc(C(F)(F)F)cn2)CCN1CC(=O)N1CCN(C2CCCC2)CC1` (centres unmarked) [Compound 442, 1-[2-(4-cyclopentylpiperazin-1-yl)-2-oxoethyl]-2-methyl-4-[5-(trifluoromethyl)pyridin-2-yl]piperazine], for which the Ki is below 1 µM.
Turning to `CC(C)N1CCN(C(=O)CN2CCN(c3ccc(Cl)cc3)CC2)CC1` [Compound 360, 1-(4-chlorophenyl)-4-[2-(4-isopropylpiperazin-1-yl)-2-oxoethyl]piperazine], the Ki was below 1 µM.
On the same count and under the same terms, the same measure for `O=C(CN1CCN(c2ccc(-c3ccccc3Cl)cc2)CC1)N1CCN(C2CCC2)CC1` [Compound 278, 1-(2′-chlorobiphenyl-4-yl)-4-[2-(4-cyclobutylpiperazin-1-yl)-2-oxoethyl]piperazine]: below 1 µM; for `O=C(c1ccc(N2CCN(CC(=O)N3CCN(C4CCC4)CC3)CC2)cc1)C1CC1` [Compound 249, (4-{4-[2-(4-cyclobutylpiperazin-1-yl)-2-oxoethyl]piperazin-1-yl}phenyl)(cyclopropyl) methanone]: below 1 µM.
The same measure, in the same setting: the same measure for `COc1cc(N2CCN(CC(=O)N3CCN(C4CCCCC4)CC3)CC2)ccc1Cl` [Compound 345, 1-(4-chloro-3-methoxyphenyl)-4-[2-(4-cyclohexylpiperazin-1-yl)-2-oxoethyl]piperazine]: below 1 µM; for `O=C(Cc1c(F)cccc1Cl)N1CCN(CC(=O)N2CCN(C3CCC3)CC2)CC1` [Compound 382, 1-[(2-chloro-6-fluorophenyl)acetyl]-4-[2-(4-cyclobutylpiperazin-1-yl)-2-oxoethyl]piperazine]: below 1 µM.
Same read-out and setting: as for `COc1cc(N2CCN(CC(=O)N3CCN(C(C)C)CC3)CC2)ccc1Cl` [Compound 347, 1-(4-chloro-3-methoxyphenyl)-4-[2-(4-isopropylpiperazin-1-yl)-2-oxoethyl]piperazine], the figure is below 1 µM.
In the case of `CC(=O)c1ccc(N2CCN(CC(=O)N3CCN(C(C)C)CC3)CC2)cc1` [Compound 329, 1-(4-{4-[2-(4-isopropylpiperazin-1-yl)-2-oxoethyl]piperazin-1-yl}phenyl)ethanone], the Ki was below 1 µM.
Same read-out and setting: as for `CC(=O)c1ccc(-c2cccc(N3CCN(CC(=O)N4CCN(C5CCC5)CC4)CC3)c2)cc1` [Compound 288, 1-(3′-{4-[2-(4-cyclobutylpiperazin-1-yl)-2-oxoethyl]piperazin-1-yl}biphenyl-4-yl)ethanone], the figure is below 1 µM.
